# Laboratory results as given in patent EP4667458A1 (Kanaph Therapeutics Inc., priority 2023, dated 2024).
# pIC50: −log10 of the molar value.
# Molecular target: T1, KRAS^G12C::SOS1 (Homo sapiens, UniProt Q07889)
# T1 sequence (Q07889 1-1333): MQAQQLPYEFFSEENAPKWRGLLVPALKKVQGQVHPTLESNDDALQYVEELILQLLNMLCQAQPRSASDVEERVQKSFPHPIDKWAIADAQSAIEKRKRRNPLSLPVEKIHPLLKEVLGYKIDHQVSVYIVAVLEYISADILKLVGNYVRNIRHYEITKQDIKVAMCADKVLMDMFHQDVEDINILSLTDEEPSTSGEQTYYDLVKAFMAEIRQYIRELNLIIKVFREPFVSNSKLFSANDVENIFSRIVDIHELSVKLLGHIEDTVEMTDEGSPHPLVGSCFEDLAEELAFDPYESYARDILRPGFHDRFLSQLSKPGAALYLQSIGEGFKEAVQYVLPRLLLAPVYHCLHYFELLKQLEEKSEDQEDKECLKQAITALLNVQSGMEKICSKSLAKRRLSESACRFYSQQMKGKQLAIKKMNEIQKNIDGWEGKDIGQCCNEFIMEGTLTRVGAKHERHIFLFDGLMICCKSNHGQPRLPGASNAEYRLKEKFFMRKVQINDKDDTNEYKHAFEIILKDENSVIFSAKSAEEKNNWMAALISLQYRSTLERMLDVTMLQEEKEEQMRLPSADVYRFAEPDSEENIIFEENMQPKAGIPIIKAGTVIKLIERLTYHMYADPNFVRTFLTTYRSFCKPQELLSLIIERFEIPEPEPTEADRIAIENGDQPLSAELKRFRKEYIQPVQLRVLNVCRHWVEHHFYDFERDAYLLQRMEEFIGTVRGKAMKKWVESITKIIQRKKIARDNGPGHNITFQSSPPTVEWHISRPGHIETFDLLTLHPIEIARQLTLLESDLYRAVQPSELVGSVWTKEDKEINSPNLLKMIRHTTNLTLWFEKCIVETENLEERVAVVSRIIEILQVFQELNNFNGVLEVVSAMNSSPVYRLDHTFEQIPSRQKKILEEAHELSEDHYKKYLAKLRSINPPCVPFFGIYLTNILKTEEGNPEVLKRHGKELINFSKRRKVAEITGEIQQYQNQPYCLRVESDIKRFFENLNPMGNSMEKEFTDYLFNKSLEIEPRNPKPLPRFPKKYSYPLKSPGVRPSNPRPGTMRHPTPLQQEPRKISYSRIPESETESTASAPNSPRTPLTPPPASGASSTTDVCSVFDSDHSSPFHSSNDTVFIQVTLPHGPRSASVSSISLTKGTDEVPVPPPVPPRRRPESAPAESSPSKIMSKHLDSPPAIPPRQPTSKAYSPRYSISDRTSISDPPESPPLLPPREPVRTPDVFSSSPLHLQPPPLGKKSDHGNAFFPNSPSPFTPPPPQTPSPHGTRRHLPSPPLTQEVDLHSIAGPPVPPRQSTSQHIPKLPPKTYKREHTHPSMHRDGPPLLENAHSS
# Experiment: KRAS G12C::SOS1 protein-protein interaction (PPI) inhibition assay (HTRF binding kit)
# Method: Protein-protein interaction between SOS1 and KRAS^G12C was detected using KRAS G12C/SOS1 binding kit from CISBIO (64KRASG12PEH, CISBIO, FRANCE) according to the manufacturer's assay method. Briefly, the maximum concentration of an inhibitor sample was set to be 3 µM, and the inhibitor sample was diluted 7 times by 1/3, and samples having a total of 8 concentrations were prepared. In HTRF (Homogeneous Time-Resolved Fluorescence) exclusive 96-well low-volume white plate (66PL96005, CISBIO, FRANCE), 2 µL of an inhibitor sample prepared for each concentration, 5 µL of a mixed solution of Tag1-labeled KRAS^G12C protein and GTP diluted with the dilution solution provided by the manufacturer, and 5 µL of Tag2 labeled SOS1 protein were mixed, and added with 8 µL of a diluted solution where anti-Tag1 KRAS^G12C XL665 (HTRF acceptor) labeled antibody and anti-Tag2 SOS1 Terbium cryptate (HTRF donor) labeled antibody were mixed in an equal ratio and incubated at room temperature for 2 h.
row,SMILES,pIC50
1,"C[C@@H](NC(=O)c1ccc(=O)n(-c2cc(-c3cnnn3C)ccc2F)n1)c1cccc(C(F)(F)CO)c1F [Example 372, N-[(1R)-1-[3-(1,1-difluoro-2-hydroxy-ethyl)-2-fluoro-phenyl]ethyl]-1-[2-fluoro-5-(3-methyltriazol-4-yl)phenyl]-6-oxo-pyridazine-3-carboxamide]",> 6.00
2,"Cc1nnnn1-c1cccc(-n2cc(C(=O)N[C@H](C)c3cc(N)cc(C(F)(F)F)c3)ccc2=O)c1 [Example 374, N-[(1R)-1-[3-amino-5-(trifluoromethyl)phenyl]ethyl]-1-[3-(5-methyltetrazol-1-yl)phenyl]-6-oxo-pyridine-3-carboxamide]",> 6.00
3,"C[C@@H](NC(=O)c1ccc(=O)n(-c2ccccc2F)n1)c1cc(N)cc(C(F)F)c1 [Example 375, N-[(1R)-1-[3-amino-5-(difluoromethyl)phenyl]ethyl]-1-(2-fluorophenyl)-6-oxo-pyridazine-3-carboxamide]",> 6.00
4,"C[C@@H](NC(=O)c1ccc(=O)n(-c2cccc(-c3ccon3)c2)n1)c1cc(N)cc(C(F)(F)F)c1 [Example 376, N-[(1R)-1-[3-amino-5-(trifluoromethyl)phenyl]ethyl]-1-(3-isoxazol-3-ylphenyl)-6-oxo-pyridazine-3-carboxamide]",> 6.00
5,"CC(=O)Nc1cc(=O)n(-c2ccccc2F)nc1C(=O)N[C@H](C)c1cccc(C(F)(F)COC(C)=O)c1F [Example 380, [2-[3-[(1R)-1-[[4-acetamido-1-(2-fluorophenyl)-6-oxo-pyridazine-3-carbonyl]amino]ethyl]-2-fluoro-phenyl]-2,2-difluoro-ethyl] acetate]",> 6.00
6,"CNc1cc(=O)n(-c2ccccc2F)nc1C(=O)N[C@H](C)c1cc(N)cc(C(F)(F)F)c1 [Example 383, N-[(1R)-1-[3-amino-5-(trifluoromethyl)phenyl]ethyl]-1-(2-fluorophenyl)-4-(methylamino)-6-oxo-pyridazine-3-carboxamide]",> 6.00

# Second part, the compound after the results:
row,pIC50,SMILES
1,> 6.00,"C[C@@H](NC(=O)c1ccc(=O)n(-c2cccc(-c3cnnn3C)c2)n1)c1cc(N)cc(C(F)(F)F)c1 [Example 369, N-[(1R)-1-[3-amino-5-(trifluoromethyl)phenyl]ethyl]-1-[3-(3-methyltriazol-4-yl)phenyl]-6-oxo-pyridazine-3-carboxamide]"
2,> 6.00,"Cc1nnnn1-c1cccc(-n2nc(C(=O)N[C@H](C)c3cc(N)cc(C(F)(F)F)c3)ccc2=O)c1 [Example 373, N-[(1R)-1-[3-amino-5-(trifluoromethyl)phenyl]ethyl]-1-[3-(5-methyltetrazol-1-yl)phenyl]-6-oxo-pyridazine-3-carboxamide]"
3,> 6.00,"C[C@@H](NC(=O)c1nn(-c2ccccc2F)c(=O)cc1N)c1cccc(C(F)(F)CO)c1F [Example 379, 4-amino-N-[(1R)-1-[3-(1,1-difluoro-2-hydroxy-ethyl)-2-fluorophenyl]ethyl]-1-(2-fluorophenyl)-6-oxo-pyridazine-3-carboxamide]"
4,> 6.00,"C[C@@H](NC(=O)c1nn(-c2ccccc2F)c(=O)cc1N)c1cc(N)cc(C(F)(F)F)c1 [Example 381, 4-amino-N-[(1R)-1-[3-amino-5-(trifluoromethyl)phenyl]ethyl]-1-(2-fluorophenyl)-6-oxo-pyridazine-3-carboxamide]"
5,> 6.00,"CC(=O)Nc1cc(=O)n(-c2ccccc2F)nc1C(=O)N[C@H](C)c1cc(N)cc(C(F)(F)F)c1 [Example 382, 4-acetamido-N-[(1R)-1-[3-amino-5-(trifluoromethyl)phenyl]ethyl]-1-(2-fluorophenyl)-6-oxo-pyridazine-3-carboxamide]"
6,> 6.00,"C[C@@H](NC(=O)c1nn(-c2ccccc2F)c(=O)cc1NS(C)(=O)=O)c1cc(N)cc(C(F)(F)F)c1 [Example 384, N-[(1R)-1-[3-amino-5-(trifluoromethyl)phenyl]ethyl]-1-(2-fluorophenyl)-4-(methanesulfonamido)-6-oxo-pyridazine-3-carboxamide]"
